In publication PMC11487425 (RSC Medicinal Chemistry, 2024):
Where two headings read alike, the source gives them in different places.

Assays:
[1] = tested on: DYRK1A; conditions: cited from earlier work
[2] = rat liver microsomes
[3] = biological target: T1, DYRK1B (Homo sapiens, UniProt Q9Y463); experiment: DYRK1B radiometric kinase assay with Woodtide substrate peptide; type: biochemical; conditions: read-out: % inhibition at 1 μM, DYRK1B
[4] = biological target: T2, CLK1 (Homo sapiens, UniProt P49759); experiment: Radiometric kinase assay; type: biochemical
[5] = biological target: T2, CLK1; experiment: Z'-LYTE kinase activity assay
[6] = biological target: T3, DYRK2 (Homo sapiens, UniProt Q92630); experiment: LanthaScreen kinase binding assay
T3 sequence (Q92630 1-601): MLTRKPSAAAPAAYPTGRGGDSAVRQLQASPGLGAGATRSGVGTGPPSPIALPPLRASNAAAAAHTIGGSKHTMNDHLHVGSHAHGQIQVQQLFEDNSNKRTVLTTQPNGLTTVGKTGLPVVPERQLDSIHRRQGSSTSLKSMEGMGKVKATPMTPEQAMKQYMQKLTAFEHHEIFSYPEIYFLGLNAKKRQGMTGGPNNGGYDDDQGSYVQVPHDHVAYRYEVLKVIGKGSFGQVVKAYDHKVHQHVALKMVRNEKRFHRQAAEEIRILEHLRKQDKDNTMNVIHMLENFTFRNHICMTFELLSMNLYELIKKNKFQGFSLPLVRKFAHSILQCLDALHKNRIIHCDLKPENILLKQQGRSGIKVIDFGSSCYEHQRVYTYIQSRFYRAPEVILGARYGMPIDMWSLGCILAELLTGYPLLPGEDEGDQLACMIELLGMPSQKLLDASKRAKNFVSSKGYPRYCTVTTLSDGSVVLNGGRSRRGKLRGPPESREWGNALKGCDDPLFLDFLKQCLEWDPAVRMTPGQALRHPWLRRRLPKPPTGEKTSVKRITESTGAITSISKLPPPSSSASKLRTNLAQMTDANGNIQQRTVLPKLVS

[7] = biological target: T1, DYRK1B; experiment: Z'-LYTE kinase activity assay

T1 sequence (Q9Y463 whole entry): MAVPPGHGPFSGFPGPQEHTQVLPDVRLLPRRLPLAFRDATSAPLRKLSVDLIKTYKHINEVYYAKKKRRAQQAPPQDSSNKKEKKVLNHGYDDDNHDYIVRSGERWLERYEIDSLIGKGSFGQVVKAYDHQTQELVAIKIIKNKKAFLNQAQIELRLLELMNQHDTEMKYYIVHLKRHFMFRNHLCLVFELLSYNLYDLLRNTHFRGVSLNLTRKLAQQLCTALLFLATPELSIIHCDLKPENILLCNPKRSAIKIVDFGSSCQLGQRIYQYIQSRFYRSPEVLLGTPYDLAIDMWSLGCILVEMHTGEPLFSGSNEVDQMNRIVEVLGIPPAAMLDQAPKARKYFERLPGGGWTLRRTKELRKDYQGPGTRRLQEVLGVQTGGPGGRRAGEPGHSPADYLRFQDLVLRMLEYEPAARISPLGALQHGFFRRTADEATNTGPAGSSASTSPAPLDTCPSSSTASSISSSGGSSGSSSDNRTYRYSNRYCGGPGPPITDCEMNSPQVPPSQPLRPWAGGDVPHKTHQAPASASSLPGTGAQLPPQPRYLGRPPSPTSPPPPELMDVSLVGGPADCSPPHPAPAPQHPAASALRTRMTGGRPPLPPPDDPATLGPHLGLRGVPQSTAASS
T2 sequence (P49759 whole entry): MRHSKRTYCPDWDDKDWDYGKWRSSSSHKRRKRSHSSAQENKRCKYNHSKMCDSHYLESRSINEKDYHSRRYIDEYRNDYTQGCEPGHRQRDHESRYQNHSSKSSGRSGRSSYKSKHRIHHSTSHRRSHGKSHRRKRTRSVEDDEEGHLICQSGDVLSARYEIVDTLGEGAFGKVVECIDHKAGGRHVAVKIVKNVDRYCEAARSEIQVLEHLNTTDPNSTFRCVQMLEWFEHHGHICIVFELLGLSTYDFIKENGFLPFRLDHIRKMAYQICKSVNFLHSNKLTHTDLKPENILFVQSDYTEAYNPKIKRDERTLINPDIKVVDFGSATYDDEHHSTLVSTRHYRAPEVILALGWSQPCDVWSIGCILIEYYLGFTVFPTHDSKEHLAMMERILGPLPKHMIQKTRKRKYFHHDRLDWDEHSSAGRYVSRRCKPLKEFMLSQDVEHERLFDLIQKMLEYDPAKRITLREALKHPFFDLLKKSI

Row | Compound | microsomal stability in words [2] | inhibition at 1 µM [3] [%] | also measured
1 | CC(=O)c1cc2cc(O)ccc2s1 [1-(5-hydroxy-1-benzothiophen-2-yl)ethan-1-one] |  |  | IC50 ([1]; read-out: IC50 DYRK1A): 0.2 µM
2 | COc1cccc2c1-c1c(sc3ccccc13)C2=O [4a, 10-Methoxy-6H-benzo[b]indeno[1,2-d]thiophen-6-one] | rapidly metabolized |  | 
3 | COc1cccc2c1C(=O)c1sc3ccccc3c1-2 [4d, 7-Methoxy-6H-benzo[b]indeno[1,2-d]thiophen-6-one] | rapidly metabolized | 7 | 
4 | O=C(c1ccccc1)c1cc2cc(O)ccc2s1 [5c] |  |  | IC50 ([1]; read-out: IC50 for DYRK1A, benzothiophenyl-acetophenones 5, Fig. 2): 2 µM

Now from value to compound, other results behind:

Row | microsomal stability in words [2] | inhibition at 1 µM [3] [%] | Compound | also measured
5 |  | 68 | COc1ccc2sc3c(c2c1)-c1ccccc1C3=O [4e, 2-Methoxy-6H-benzo[b]indeno[1,2-d]thiophen-6-one] | 
6 | rapidly metabolized | < 5 | COc1ccc2sc3c(c2c1)-c1c(OC)cccc1C3=O [4f, 2,10-Dimethoxy-6H-benzo[b]indeno[1,2-d]thiophen-6-one] | 
7 |  | 89 | O=C1c2ccccc2-c2c1sc1ccc(O)cc21 [4i, 2-Hydroxy-6H-benzo[b]indeno[1,2-d]thiophen-6-one] | 
8 |  | 93 | COc1ccc2c(c1)-c1c(sc3ccc(O)cc13)C2=O [4j, 2-Hydroxy-9-methoxy-6H-benzo[b]indeno[1,2-d]thiophen-6-one] | 
9 |  | 78 | COc1ccc2c(c1)C(=O)c1sc3ccc(O)cc3c1-2 [4k, 2-Hydroxy-8-methoxy-6H-benzo[b]indeno[1,2-d]thiophen-6-one] | IC50 [4]: 0.02 µM; IC50 [5]: 1.08 µM; IC50 [6]: 0.186 µM; IC50 [7]: 0.206 µM
